29 compounds from ChEMBL document CHEMBL1201862, “PubChem BioAssay data set” (2004) can be followed below.

Assay [1] deals with T1, Protein skinhead-1 (Caenorhabditis elegans, UniProt P34707).
T1 sequence (P34707 whole entry): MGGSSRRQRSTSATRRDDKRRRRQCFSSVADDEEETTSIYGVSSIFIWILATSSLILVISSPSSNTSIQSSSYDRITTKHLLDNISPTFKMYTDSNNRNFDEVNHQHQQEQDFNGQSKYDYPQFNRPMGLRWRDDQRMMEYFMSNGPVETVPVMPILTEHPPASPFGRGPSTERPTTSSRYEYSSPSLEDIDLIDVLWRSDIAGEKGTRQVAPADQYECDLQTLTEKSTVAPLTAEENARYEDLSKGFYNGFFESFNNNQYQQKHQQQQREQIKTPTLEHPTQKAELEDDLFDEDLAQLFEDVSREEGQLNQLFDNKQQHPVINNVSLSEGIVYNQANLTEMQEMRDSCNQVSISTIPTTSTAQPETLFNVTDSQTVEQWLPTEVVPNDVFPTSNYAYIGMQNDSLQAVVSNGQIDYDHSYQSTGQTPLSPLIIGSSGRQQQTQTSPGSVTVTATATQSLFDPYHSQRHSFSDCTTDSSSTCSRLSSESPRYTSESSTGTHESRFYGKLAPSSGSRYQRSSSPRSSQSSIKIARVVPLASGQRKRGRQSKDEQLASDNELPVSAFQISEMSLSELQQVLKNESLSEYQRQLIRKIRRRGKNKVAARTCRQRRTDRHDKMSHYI
Format: functional.

The nature of assay [2]: Luminescence Cell-Based Dose Response HTS to Identify Activators of Luciferase Translation or Activity in H4 […] Cells. [Related pubchem assays: 1829 (Project Summary), 1814 (Primary HTS)]. Format: functional.
Assay [3] can be described thus: Luminescence Cell-Based Dose Confirmation HTS to Identify Activators of 5'UTR Stem-Loop Driven Alpha-Synuclein mRNA Translation in H4 Neuroglioblastoma Cells. [Related pubchem assays: 1829 (Project Summary), 1814 (Primary HTS)]. It is filed as functional.
The test system of assay [4] is H4. As to the kind of experiment: Luminescence Cell-Based Dose Response HTS to Identify Activators of 5'UTR Stem-Loop Driven Prion Protein mRNA Translation in H4 Neuroglioblastoma Cells. [Related pubchem assays: 1829 (Project Summary), 1814 (Primary HTS)]. Format: functional. The settings on record: Homo sapiens.
The nature of assay [5]: HEp-2 cell cytotoxicity, dose response, cytotoxicity control for RSV inhibitor project, HTS (AID 2410). Format: functional. The settings on record: human respiratory syncytial virus.
In assay [6] the target is Luciferin 4-monooxygenase (Photinus pyralis, UniProt P08659). As to the kind of experiment: firefly luciferase enzyme inhibitors, dose response, biochemical, luminescence (AID 1891).
Luciferin 4-monooxygenase, sequence (P08659 whole entry): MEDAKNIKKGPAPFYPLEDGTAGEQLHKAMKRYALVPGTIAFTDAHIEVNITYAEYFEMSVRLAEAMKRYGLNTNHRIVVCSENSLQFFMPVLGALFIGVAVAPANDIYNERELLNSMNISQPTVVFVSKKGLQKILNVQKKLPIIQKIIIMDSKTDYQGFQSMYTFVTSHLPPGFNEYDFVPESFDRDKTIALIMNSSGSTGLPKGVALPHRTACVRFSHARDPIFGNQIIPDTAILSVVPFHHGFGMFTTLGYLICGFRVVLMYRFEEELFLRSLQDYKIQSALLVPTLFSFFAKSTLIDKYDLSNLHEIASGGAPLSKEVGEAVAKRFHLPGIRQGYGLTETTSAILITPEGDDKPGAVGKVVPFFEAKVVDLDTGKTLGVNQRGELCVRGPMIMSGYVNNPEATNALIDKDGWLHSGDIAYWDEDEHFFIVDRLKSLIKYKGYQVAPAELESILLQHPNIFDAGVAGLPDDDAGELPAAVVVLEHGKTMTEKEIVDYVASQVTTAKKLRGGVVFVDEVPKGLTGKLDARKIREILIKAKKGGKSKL
A short description of assay [7]: Luminescence Cell-Based Dose Confirmation HTS to Identify Inhibitors of Platelet Dense Granule Release. [Related pubchem assays: 1663 (Primary HTS), 1678 (Summary of Project)]. It is filed as functional.
Assay [8] can be described thus: Luminescence Cell-Based Dose Response HTS to Identify Inhibitors of 5'UTR Stem-Loop Driven Prion Protein mRNA Translation in H4 Neuroglioblastoma Cells. [Related pubchem assays: 1827 (Project Summary), 1813 (Primary HTS)]. Format: functional.
Assay [9] in a line: inhibitors of firefly luciferase expression or activity, dose response, H4 neuroglioma cells, luminescence (AID 1990). It is filed as functional, cell-based.
Assay [10] can be described thus: inhibitors of SNCA 5'UTR-driven reporter translation, confirmation, H4 neuroglioma cells, luminescence (AID 1988). Format: functional, cell-based.
Assay [11] concerns the target Cytochrome P450 2C9 (Homo sapiens, UniProt P11712).
Assay [12] is described as follows: Luminescence Cell-Based Dose Retest to Confirm Inhibitors of Cancer Stem Cells. [Related pubchem assays (depositor defined):AID2717, AID2721]. Format: functional. Conditions: Homo sapiens.
The target in assay [13] is T2, RNA-binding protein pos-1 (Caenorhabditis elegans, UniProt G5EF15).
T2 sequence (G5EF15 whole entry): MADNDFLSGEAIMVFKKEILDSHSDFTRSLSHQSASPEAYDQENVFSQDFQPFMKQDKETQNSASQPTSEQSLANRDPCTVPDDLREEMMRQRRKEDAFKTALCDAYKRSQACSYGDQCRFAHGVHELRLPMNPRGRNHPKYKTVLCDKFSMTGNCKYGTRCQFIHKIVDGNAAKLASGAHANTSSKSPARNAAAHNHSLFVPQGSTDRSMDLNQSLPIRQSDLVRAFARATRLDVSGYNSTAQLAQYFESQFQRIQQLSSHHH
Put plainly: inhibitors of POS-1/mex-3 RNA binding, dose response, biochemical, fluorescence polarization (AID 1964).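 Also: purified POS-1 fused to maltose binding protein made in E. coli; potency of compounds blocking POS-1 binding to fluorescent RNA.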

The source made the active and inactive calls. Rule as the data show it, for most assays here: actives have a measured EC50 and inactives only a lower limit. Where only a bound is given, the exact number is not on record here.

Cytochrome P450 2C9, sequence (P11712 whole entry): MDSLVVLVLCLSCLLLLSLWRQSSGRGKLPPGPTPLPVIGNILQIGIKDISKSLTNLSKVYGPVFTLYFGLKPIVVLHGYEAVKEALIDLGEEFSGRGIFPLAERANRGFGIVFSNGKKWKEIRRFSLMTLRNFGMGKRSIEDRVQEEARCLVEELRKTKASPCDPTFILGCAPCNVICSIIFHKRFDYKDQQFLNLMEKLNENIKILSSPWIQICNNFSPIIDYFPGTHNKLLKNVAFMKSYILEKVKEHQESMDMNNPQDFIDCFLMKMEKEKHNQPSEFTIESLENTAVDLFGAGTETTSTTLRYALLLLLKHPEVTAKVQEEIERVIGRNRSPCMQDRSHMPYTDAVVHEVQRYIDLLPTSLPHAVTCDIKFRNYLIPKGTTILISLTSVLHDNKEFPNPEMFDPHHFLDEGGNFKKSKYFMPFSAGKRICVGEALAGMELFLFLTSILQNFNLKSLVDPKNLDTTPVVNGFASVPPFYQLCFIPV

In the case of `N#CC(=Cc1cccs1)c1nc(-c2ccc(Cl)cc2)cs1`, the IC50 (as a rule, the concentration that gives 50% inhibition) in [1] is > 100 µM (inactive).
On the same count and under the same terms, for `O=C(Nc1ccc(Cl)cn1)c1cc2c(s1)-c1ccccc1OC2` the value was > 100 µM (inactive).
Turning to `Cc1c(OCc2ccccc2)c(=O)ccn1Cc1ccccc1`, the figures for the EC50 in assay [2], in assay [3] and in assay [4] were 9.62 µM (active), 13.4 µM (active) and 8.26 µM (active), respectively.
Consider `CSc1ccc(-c2cc(=O)c3ccccc3o2)cc1`, for which the half-maximal inhibitory concentration (IC50) in [1] is 23.9 µM (active). The CC50 (as a rule, the concentration that lowers cell viability or growth by half) in assay [5] is 18.7 µM (active).
In the case of `Cc1ccc(-n2cnc3c(sc4nccc(N(C)C)c43)c2=O)cc1`, the EC50 (usually the concentration that produces a half-maximal response) in assay [2] is 75.7 µM (active); in [3] it was > 120 µM (not active); in [4] it was 15.6 µM (active).
In the case of `COc1ccc(/C=N/N=C(/N)N[N+](=O)[O-])c(OC)c1`, the concentration for a half-maximal effect (EC50) in assay [6] was > 112 µM (not active); in [7], 2.39 µM (active).
In the case of `Cc1cccc(NC(=O)NCCN2CCCCC2)c1`, the IC50 in assay [1] was > 100 µM (inactive).
Still for that read-out and setting: for `O=C(NCc1ccc(Cl)cc1)c1ccc(-c2ccc(F)c(F)c2)c2ccoc12` the value was > 100 µM (inactive).
As for `CN(C)c1ccc(-n2cc3c(=O)n(C)c(=O)n(C)c3c2)cc1`, the figures for the EC50 in assay [2], in assay [3] and in assay [4] were 21 µM (active), 45 µM (active) and 42.3 µM (active), respectively.
As to `O=C(CSc1ncnc2scc(-c3ccc(Cl)cc3)c12)NCc1ccc2c(c1)OCO2`, the IC50 in [1] is > 100 µM (inactive).
Regarding `Cc1cc(N2CCN(S(=O)(=O)c3ccc(C)c(C)c3)CC2)c2ccccc2n1`, the results for the half-maximal effective concentration (EC50) in [8], in assay [9] and in [10] were 50 µM (active), > 120 µM (not active) and > 120 µM (not active), respectively.
For `CCCCOC(=O)CCc1c(C)nc(O)c(C#N)c1C`, the values for the EC50 in [6] and in assay [7] were > 112 µM (not active) and 6.36 µM (active), respectively. Further, the half-maximal activity concentration (AC50) – broadly, the midpoint of the concentration-response curve, whichever way the signal moves – in [11] was 0.282 µM (inconclusive).
In the case of `Cc1ccc(NC(=O)CC2C(=O)NC3CCCCC3N2C(=O)c2ccc(F)cc2)cc1C` (stereo unspecified), the EC50 in assay [6] and in assay [7] was > 112 µM (not active) in each case.
As for `COc1ccc(NC(=O)c2cccs2)cc1`, the EC50 is 17.4 µM (active) in assay [6] and 18.6 µM (active) in [7].
With `CCCCn1c(SCC(=O)N2c3ccccc3CCc3ccccc32)nc2c1c(=O)n(C)c(=O)n2C`, the EC50 in assay [8] is 14.2 µM (active); in [9], > 120 µM (not active); in assay [10], 15 µM (active).
The like results for `N=c1nc(SCCC(=O)O)ss1` were, in that order, 15.8 µM (active), 13.4 µM (active) and 14 µM (active).
Turning to `Cc1onc(-c2ccccc2Cl)c1C(=O)NCCn1ccc2ccccc21`, the IC50 in assay [1] was > 100 µM (inactive).
Take `Cc1cc(Nc2cccc([N+](=O)[O-])c2)c2cccc(C)c2n1`: the EC50 in assay [6] and in assay [7] was > 112 µM (not active) in each case.
As to `O=C(Cn1c2ccccc2c(=O)c2ccccc21)N/N=C/c1ccc(N2CCCC2)c([N+](=O)[O-])c1`, the 50% effective concentration (EC50) was 7.94 µM (active) in assay [8]; > 112 µM (not active) in assay [6]; 5.67 µM (active) in [9]; 27.4 µM (active) in assay [7]; 5.08 µM (active) in [10]. Also, in assay [12], the AC50 is 0.483 µM (active).
For `FC(F)(F)c1cc(Oc2ccccc2Cl)nc(-c2ccccn2)n1`, the EC50 is > 120 µM (not active) in assay [8], 7.86 µM (active) in [9] and 6.37 µM (active) in assay [10].
For `Cc1ccc(-c2csc(NC(CO)c3nc4ccccc4n3CCOCCO)n2)cc1` (stereo unspecified), the 50% effective concentration (EC50) in [2] was > 120 µM (not active); in assay [3] it was > 120 µM (not active); in assay [4], 17.3 µM (active).
`O=C(Nc1ccc(Cl)cn1)c1ccccc1F`: the half-inhibitory concentration (IC50) in [1] is 16.3 µM (active).
Take `Sc1nnc(Cc2sc(-c3ccccc3)nc2-c2ccccc2)o1`: the 50% effective concentration (EC50) is > 120 µM (not active) in [8], 18.9 µM (active) in assay [9] and > 120 µM (not active) in assay [10].
`Cc1n[nH]c(S/C(C(=O)O)=C2/C(=O)Nc3ccccc32)n1`: the EC50 in assay [6] was 15.9 µM (active); in assay [7] it was > 112 µM (not active); in [13] it was > 300 µM (not active).
Turning to `CC(=O)c1sc(N/N=C2\CC3CC2C(C)C3(C)C)nc1C` (stereo unspecified), the concentration for a half-maximal effect (EC50) was 12.9 µM (active) in assay [2], 0.411 µM (active) in assay [3] and 11 µM (active) in assay [4].
The like results for `Cc1nnc2ccc(-c3ccc(NC(=O)c4ccco4)cc3)nn12` were, in that order, 14.4 µM (active), 18.5 µM (active) and > 120 µM (not active).
`N#CCCN(C(=O)COC(=O)CCc1c[nH]c2ccccc12)c1ccc(F)cc1`: the EC50 in assay [6] was > 112 µM (not active); in assay [7], 45.7 µM (active).
On to `Brc1ccc(-c2nnc(-c3cccnc3)o2)cc1`, for which, in [1], the IC50 was 25.1 µM (active).
With `O=C(NCCc1ccccn1)c1ccc(S(=O)(=O)N2CCCCCC2)cc1`, the IC50 in assay [1] is > 100 µM (inactive).
